Measured values taken from ChEMBL document CHEMBL1201862, “PubChem BioAssay data set” (2004).
Calls of active or inactive are those of the source.

Columns and labels:
[1] = molecular target: T1, Leucine aminopeptidase (Plasmodium falciparum 3D7, UniProt Q8IL11); experiment: P. falciparum M17LAP inhibitors, primary screen, biochemical, fluorogenic H-Leu-NHMec substrate, 1536-well (AID 1619); type: functional
T1 sequence (Q8IL11 whole entry): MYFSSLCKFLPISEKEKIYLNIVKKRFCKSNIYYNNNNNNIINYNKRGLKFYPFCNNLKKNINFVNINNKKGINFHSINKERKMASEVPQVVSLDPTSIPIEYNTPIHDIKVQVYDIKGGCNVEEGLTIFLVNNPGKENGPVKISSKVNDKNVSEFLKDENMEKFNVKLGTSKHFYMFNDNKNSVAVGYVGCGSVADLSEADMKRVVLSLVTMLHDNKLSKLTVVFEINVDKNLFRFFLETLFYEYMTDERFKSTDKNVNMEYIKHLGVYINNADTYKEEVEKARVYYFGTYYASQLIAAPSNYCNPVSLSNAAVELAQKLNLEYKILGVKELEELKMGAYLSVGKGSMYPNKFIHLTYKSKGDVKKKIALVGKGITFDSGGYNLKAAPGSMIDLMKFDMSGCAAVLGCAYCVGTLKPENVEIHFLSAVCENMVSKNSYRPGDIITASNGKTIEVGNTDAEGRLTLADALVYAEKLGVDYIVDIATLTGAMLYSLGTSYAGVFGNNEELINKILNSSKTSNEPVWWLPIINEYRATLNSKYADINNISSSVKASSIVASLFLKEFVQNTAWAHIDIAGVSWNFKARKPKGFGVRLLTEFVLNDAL

[2] = C. albicans growth with fluconazole, confirmation, fluorescence, retest (AID 2467); type: functional, cell-based
[3] = molecular target: T2, Hexokinase HKDC1 (Homo sapiens, UniProt Q2TB90); experiment: HKDC1 hexokinase inhibitors, dose response, biochemical, W721R variant (AID 504729); type: functional
T2 sequence (Q2TB90 whole entry): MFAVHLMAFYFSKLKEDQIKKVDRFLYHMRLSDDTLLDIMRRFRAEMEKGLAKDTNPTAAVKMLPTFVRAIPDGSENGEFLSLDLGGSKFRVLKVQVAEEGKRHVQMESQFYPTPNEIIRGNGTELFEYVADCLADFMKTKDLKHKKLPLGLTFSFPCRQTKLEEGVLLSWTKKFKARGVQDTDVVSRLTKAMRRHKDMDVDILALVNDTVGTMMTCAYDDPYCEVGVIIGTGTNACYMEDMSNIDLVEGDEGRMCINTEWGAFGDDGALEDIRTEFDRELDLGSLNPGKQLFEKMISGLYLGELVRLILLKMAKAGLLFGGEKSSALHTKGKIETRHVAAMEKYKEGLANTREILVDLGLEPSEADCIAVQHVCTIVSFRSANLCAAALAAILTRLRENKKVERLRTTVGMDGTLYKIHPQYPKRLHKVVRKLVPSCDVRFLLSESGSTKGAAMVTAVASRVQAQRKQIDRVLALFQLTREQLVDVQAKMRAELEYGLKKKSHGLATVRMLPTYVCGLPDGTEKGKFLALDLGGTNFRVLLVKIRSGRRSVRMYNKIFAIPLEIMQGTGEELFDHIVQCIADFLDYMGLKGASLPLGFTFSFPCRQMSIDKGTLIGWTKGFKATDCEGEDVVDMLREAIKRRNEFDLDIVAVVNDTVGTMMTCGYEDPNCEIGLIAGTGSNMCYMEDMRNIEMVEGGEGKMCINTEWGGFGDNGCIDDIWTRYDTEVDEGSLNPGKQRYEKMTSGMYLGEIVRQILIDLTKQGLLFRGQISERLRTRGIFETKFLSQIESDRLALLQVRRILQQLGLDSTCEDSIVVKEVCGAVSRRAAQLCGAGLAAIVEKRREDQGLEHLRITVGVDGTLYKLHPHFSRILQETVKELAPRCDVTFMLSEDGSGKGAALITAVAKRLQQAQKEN

[4] = molecular target: Sphingosine 1-phosphate receptor 2 (Homo sapiens, UniProt O95136); experiment: Dose Response Cell Based Assay for Antagonists of the S1P2 Receptor. [Related pubchem assays: 856, 736 ]; type: functional
Chain of Sphingosine 1-phosphate receptor 2 (O95136 whole entry): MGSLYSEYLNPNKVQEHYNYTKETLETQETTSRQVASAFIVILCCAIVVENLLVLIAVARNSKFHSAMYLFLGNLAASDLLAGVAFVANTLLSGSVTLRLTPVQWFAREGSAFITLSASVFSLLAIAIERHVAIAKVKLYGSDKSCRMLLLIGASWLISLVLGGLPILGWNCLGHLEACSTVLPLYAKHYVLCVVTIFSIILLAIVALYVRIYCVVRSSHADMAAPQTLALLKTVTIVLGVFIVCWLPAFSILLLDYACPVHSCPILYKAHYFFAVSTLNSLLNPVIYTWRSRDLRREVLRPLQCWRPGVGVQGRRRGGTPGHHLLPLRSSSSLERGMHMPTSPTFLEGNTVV

[5] = molecular target: RAC-gamma serine/threonine-protein kinase (Homo sapiens, UniProt Q9Y243); type: functional
Chain of RAC-gamma serine/threonine-protein kinase (Q9Y243 whole entry, the tested form may be a part): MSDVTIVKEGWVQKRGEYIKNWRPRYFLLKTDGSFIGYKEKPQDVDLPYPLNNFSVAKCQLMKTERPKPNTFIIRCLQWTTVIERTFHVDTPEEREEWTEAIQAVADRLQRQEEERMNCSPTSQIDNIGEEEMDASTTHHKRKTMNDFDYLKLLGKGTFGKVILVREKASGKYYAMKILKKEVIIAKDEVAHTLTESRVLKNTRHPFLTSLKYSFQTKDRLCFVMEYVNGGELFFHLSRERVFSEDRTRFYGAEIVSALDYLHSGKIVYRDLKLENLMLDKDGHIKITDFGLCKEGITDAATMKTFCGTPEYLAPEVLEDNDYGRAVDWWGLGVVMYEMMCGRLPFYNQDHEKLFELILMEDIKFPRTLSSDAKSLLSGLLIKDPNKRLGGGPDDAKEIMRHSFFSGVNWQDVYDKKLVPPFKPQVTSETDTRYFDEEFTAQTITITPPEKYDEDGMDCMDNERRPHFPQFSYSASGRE

[6] = molecular target: LIM domain kinase 1 (Homo sapiens, UniProt P53667); experiment: Navigating the Kinome. Panel member name: LIMK1; type: functional
[7] = molecular target: 5'-AMP-activated protein kinase catalytic subunit alpha-1 (Homo sapiens, UniProt Q13131); type: functional
[8] = molecular target: Serine/threonine-protein kinase PLK4 (Homo sapiens, UniProt O00444); type: functional;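 further: PLK4 measured as one member of a kinome-wide kinase profiling panel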
[9] = molecular target: Calcium/calmodulin-dependent protein kinase type II subunit beta (Homo sapiens, UniProt Q13554); type: functional
Chain of Calcium/calmodulin-dependent protein kinase type II subunit beta (Q13554 whole entry): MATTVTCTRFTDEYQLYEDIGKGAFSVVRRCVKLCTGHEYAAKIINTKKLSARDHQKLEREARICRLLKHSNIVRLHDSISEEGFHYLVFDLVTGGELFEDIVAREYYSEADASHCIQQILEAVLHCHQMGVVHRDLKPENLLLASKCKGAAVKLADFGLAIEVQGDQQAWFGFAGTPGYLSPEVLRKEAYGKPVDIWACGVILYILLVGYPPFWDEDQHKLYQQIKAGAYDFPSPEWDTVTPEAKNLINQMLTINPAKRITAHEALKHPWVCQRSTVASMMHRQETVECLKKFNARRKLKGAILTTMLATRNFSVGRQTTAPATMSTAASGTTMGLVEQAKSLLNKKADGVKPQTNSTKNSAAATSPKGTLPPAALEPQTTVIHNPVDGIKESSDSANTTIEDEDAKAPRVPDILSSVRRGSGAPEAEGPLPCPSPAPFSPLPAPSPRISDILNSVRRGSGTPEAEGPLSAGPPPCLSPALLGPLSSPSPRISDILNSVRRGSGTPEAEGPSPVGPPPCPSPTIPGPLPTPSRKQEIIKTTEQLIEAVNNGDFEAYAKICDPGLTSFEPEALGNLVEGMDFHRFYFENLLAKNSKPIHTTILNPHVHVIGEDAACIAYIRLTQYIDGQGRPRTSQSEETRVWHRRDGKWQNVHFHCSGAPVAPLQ

[10] = molecular target: High affinity nerve growth factor receptor (Homo sapiens, UniProt P04629); type: functional;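 further: NTRK1 tested as one member of a kinome-wide profiling panel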
Chain of High affinity nerve growth factor receptor (P04629 whole entry): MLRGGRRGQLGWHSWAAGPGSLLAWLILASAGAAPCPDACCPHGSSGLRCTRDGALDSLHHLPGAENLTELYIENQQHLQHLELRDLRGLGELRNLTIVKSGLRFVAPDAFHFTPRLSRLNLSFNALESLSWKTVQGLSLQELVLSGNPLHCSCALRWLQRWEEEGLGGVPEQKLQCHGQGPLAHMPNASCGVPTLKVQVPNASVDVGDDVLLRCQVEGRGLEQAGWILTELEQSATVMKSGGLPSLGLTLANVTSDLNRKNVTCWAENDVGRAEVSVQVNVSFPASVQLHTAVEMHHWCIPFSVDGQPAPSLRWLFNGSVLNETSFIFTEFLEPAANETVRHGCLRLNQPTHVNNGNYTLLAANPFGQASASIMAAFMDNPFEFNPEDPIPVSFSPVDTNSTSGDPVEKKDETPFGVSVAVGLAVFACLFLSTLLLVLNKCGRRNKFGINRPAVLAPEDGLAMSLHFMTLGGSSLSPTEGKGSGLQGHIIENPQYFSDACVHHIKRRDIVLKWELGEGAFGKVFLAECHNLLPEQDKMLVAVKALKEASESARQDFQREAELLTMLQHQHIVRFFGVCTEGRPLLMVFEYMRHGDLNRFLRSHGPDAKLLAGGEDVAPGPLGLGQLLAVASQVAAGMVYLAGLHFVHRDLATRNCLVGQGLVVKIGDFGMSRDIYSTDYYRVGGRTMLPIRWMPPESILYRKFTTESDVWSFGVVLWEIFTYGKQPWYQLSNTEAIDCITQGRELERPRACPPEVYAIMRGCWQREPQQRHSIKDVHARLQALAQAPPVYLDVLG

[11] = molecular target: Serine/threonine-protein kinase PAK 4 (Homo sapiens, UniProt O96013); type: functional;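 further: value obtained within a kinome profiling panel in which PAK4 was one of the panel members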
[12] = molecular target: Calcium/calmodulin-dependent protein kinase type 1 (Homo sapiens, UniProt Q14012); type: functional
Chain of Calcium/calmodulin-dependent protein kinase type 1 (Q14012 whole entry): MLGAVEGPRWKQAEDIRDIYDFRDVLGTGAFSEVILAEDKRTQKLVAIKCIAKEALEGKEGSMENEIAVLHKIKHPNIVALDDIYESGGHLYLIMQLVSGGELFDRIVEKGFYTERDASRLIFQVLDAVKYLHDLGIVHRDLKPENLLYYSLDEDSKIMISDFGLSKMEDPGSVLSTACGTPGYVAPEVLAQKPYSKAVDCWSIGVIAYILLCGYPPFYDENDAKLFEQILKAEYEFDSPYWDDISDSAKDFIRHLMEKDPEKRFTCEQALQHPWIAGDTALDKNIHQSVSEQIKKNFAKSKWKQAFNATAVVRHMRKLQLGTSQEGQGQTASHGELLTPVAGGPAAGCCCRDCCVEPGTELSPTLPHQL

[13] = molecular target: Tyrosine-protein kinase Fer (Homo sapiens, UniProt P16591); type: functional;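 further: FER tested as one member of a kinome panel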
[14] = molecular target: Platelet-derived growth factor receptor beta (Homo sapiens, UniProt P09619); type: functional;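 further: value comes from a kinome panel, with PDGFRB tested as one panel member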
Chain of Platelet-derived growth factor receptor beta (P09619 whole entry): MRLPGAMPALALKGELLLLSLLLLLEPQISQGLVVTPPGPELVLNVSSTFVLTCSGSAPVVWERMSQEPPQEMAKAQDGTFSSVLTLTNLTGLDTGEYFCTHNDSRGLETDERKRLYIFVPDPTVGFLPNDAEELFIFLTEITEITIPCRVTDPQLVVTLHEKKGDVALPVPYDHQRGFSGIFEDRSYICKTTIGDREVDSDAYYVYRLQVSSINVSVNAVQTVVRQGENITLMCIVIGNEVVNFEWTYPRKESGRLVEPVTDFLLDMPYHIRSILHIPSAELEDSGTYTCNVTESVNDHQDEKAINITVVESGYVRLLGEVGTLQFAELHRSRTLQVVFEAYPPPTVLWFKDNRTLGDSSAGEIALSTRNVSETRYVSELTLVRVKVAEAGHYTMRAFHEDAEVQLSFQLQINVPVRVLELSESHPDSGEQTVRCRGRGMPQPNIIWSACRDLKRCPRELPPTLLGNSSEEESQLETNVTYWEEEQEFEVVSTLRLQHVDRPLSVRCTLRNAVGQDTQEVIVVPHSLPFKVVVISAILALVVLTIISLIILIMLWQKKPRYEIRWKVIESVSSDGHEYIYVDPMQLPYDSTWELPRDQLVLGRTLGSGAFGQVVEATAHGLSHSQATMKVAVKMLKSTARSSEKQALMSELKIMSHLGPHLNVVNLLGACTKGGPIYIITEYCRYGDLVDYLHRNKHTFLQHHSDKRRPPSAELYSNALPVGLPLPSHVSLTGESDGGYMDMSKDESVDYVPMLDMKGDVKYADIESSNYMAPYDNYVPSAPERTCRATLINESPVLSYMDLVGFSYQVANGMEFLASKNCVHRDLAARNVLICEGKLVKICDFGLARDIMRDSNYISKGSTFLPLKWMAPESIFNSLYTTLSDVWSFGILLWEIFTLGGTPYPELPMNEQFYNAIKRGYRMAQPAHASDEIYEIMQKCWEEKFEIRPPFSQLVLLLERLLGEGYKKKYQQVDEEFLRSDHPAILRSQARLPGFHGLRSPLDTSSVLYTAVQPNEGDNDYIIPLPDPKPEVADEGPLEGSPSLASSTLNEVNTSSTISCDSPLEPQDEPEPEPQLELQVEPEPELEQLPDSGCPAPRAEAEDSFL

[15] = molecular target: Receptor-type tyrosine-protein kinase FLT3 (Homo sapiens, UniProt P36888); type: functional;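 further: FLT3 was tested as one member of a kinome-wide kinase panel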
[16] = molecular target: SRSF protein kinase 1 (Homo sapiens, UniProt Q96SB4); type: functional;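 further: measured as one member of a kinome-wide kinase profiling panel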
Chain of SRSF protein kinase 1 (Q96SB4 whole entry): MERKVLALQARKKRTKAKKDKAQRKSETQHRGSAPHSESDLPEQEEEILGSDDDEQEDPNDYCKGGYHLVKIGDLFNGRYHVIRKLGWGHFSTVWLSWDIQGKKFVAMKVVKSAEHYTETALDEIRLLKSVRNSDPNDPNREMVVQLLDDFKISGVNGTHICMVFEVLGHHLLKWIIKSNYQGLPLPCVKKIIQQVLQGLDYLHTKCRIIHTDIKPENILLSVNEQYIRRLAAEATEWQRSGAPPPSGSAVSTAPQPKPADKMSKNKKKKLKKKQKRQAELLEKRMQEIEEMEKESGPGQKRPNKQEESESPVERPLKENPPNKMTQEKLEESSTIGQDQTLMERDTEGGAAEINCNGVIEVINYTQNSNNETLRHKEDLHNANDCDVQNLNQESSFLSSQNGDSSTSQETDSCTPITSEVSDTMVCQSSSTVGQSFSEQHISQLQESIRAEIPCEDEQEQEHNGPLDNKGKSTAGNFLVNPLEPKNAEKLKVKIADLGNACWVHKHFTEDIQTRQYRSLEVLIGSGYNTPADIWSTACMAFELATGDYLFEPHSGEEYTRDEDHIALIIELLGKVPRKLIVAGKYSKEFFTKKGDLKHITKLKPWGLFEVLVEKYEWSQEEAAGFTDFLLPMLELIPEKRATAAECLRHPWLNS

[17] = molecular target: Serine/threonine-protein kinase D2 (Homo sapiens, UniProt Q9BZL6); type: functional;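 further: measured against PRKD2 as one member of a kinome-wide kinase profiling panel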
[18] = molecular target: Vascular endothelial growth factor receptor 3 (Homo sapiens, UniProt P35916); type: functional;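 further: value from a kinome-wide profiling panel, with FLT4 as the panel member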
[19] = molecular target: Activated CDC42 kinase 1 (Homo sapiens, UniProt Q07912); experiment: Navigating the Kinome. Panel member name: ACK1; type: functional
[20] = molecular target: MAP kinase-activated protein kinase 2 (Homo sapiens, UniProt P49137); type: functional;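 further: measured as one member of a kinome-wide kinase panel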
[21] = molecular target: Casein kinase I isoform gamma-1 (Homo sapiens, UniProt Q9HCP0); type: functional;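 further: measured as the CSNK1G1 member of a kinome profiling panel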
Chain of Casein kinase I isoform gamma-1 (Q9HCP0 whole entry, canonical isoform): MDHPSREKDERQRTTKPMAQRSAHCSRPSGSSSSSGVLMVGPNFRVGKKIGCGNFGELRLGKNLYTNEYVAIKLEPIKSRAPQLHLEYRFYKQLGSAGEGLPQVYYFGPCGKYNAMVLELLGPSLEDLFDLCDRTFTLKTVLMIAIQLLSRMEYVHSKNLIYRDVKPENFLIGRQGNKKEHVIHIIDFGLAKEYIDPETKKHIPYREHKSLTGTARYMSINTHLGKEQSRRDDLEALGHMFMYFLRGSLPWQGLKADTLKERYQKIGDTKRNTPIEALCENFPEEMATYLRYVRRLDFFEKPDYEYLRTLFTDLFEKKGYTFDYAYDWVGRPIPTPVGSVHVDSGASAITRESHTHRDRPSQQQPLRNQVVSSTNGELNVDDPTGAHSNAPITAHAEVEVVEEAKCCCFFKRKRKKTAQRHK

[22] = molecular target: Cell division cycle 7-related protein kinase (Homo sapiens, UniProt O00311); type: functional;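 further: value obtained from a kinome-wide kinase panel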
[23] = molecular target: Misshapen-like kinase 1 (Homo sapiens, UniProt Q8N4C8); type: functional;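 further: kinome panel screen with MINK as the panel member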
[24] = molecular target: Serine/threonine-protein kinase pim-1 (Homo sapiens, UniProt P11309); type: functional
[25] = molecular target: Macrophage-stimulating protein receptor (Homo sapiens, UniProt Q04912); experiment: Navigating the Kinome. Panel member name: MST1R; type: functional

O=C(NN1C(=O)CSC1=S)C(=O)NN1C(=O)CSC1=S
IC50 [1]: 20.5 µM (active)

CN(C)S(=O)(=O)Oc1cccc(C(=O)Nc2ccc(Cl)c(Cl)c2)c1
EC50 [2]: 574 nM (active)

COC(=O)C1CN(C#N)N(c2ccc(Cl)cc2)C12c1ccccc1-c1ccccc12 (stereo not given)
IC50 [3]: 3.81 µM (active) | IC50 [4]: 2.79 µM (active)

Nc1noc2cccc(-c3cccc(O)c3)c12
Ki [5]: > 10 µM (inactive) | Ki [6]: 2.51 µM (active) | Ki [7]: > 25.1 µM (inactive) | Ki [8]: 2 µM (active) | Ki [9]: > 7.94 µM (inactive) | Ki [10]: > 2.51 µM (inactive) | Ki [11]: > 5.01 µM (inactive) | Ki [12]: > 5.01 µM (inactive) | Ki [13]: > 1.58 µM (inactive) | Ki [14]: 7.94 µM (active) | Ki [15]: 10 µM (active) | Ki [16]: 7.94 µM (active) | Ki [17]: 7.94 µM (active) | Ki [18]: > 6.31 µM (inactive) | Ki [19]: 25.1 µM (active) | Ki [20]: > 7.94 µM (inactive) | Ki [21]: > 6.31 µM (inactive) | Ki [22]: > 1.26 µM (inactive) | Ki [23]: 3.16 µM (active) | Ki [24]: 12.6 µM (active) | Ki [25]: 20 µM (active)
